Source: patent publication US10336702B2, “Pharmaceutically active compounds” (BERGENBIO ASA, priority 2015, dated 2019)

Key:
Akt1 = target: T1, Akt1 (Homo sapiens, UniProt P31749); experiment: Akt activation assay (PDK1-mediated activation, LANCE Ultra crosstide TR-FRET), Akt1; type: biochemical; conditions: read-out: Biological Assay 1 IC50 (nM) Akt1
T1 construct: unspecified tag, removed (detagged) (cleaved yes); purchased SignalChem and Proteros (Akt1); Merck Millipore (PDK1) 14-452 (PDK1); none given for Akt1
T1 sequence (P31749 whole entry): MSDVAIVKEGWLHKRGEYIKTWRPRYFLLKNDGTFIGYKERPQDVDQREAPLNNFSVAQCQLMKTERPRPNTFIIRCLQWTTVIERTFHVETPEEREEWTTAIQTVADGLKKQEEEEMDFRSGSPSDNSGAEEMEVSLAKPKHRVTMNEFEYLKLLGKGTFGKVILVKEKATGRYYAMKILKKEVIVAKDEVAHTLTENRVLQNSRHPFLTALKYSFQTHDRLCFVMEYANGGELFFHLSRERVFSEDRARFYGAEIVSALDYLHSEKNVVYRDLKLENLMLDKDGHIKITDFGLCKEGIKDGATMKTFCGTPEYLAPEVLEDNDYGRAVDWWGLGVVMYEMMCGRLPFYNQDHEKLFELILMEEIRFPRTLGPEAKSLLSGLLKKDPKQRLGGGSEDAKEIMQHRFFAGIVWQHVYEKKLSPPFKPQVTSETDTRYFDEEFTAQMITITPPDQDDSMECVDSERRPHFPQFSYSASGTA
How it was run: (§1)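 Human Akt1, Akt2 or Akt3 (SignalChem: 5, 15, 3 nM; Proteros: 5 nM each) was preincubated with compound, then activated by 5 nM PDK1 on PtdIns(3,4,5)P3/DOPS/DOPC vesicles with 100 µM ATP and 100 nM ULight-crosstide (HEPES pH 7.5, 1% DMSO) for 30 min. Product was detected by Eu-anti-phospho-crosstide TR-FRET (665/615 nm), with IC50 from a 4-parameter fit.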

p-Akt2 in WM115 cells = target: T2, p-Akt2 in WM115 cells (Homo sapiens, UniProt P31751); experiment: Phospho-Akt cellular SureFire assay, p-Akt2 in WM115 cells; type: cell-based; conditions: insulin stimulated, read-out: Biological Assay 2 IC50 (nM) Akt2 WM115
T2 construct: SureFire assays to detect cellular p-Akt1, p-Akt2 and p-Akt3 levels in WM115 cells (Akt2/3) and LNCaP cells (Akt1); endogenous in cells; host or cells: WM115 (ECACC 91061232), insulin-stimulated
T2 sequence (P31751 whole entry): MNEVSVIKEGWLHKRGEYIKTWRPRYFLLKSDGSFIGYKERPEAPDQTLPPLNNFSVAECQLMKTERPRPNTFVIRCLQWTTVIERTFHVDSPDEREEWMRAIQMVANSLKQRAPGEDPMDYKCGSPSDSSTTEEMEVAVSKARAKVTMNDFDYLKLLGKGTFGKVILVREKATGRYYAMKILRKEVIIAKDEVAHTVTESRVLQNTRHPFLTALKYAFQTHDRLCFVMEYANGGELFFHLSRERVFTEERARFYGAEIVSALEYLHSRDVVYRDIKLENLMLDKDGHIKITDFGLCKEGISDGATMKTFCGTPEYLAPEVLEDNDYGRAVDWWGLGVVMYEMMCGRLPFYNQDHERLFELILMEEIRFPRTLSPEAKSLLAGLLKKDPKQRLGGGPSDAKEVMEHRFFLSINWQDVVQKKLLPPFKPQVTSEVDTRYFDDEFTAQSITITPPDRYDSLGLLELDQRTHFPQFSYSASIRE
How it was run: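 WM115 cells in 0.1% FBS medium stimulated 10 min with 100 nM insulin, then exposed to compound for 15 min at 37° C (0.3% DMSO final). Lysates assayed by AlphaScreen with anti-(pThr308)Akt and isoform-specific total Akt2 antibodies; IC50 from 4-parameter fit.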

p-Akt3 in WM115 cells = target: T3, p-Akt3 in WM115 cells (Homo sapiens, UniProt Q9Y243); experiment: Phospho-Akt cellular SureFire assay, p-Akt3 in WM115 cells; type: cell-based; conditions: insulin stimulated, read-out: Biological Assay 2 IC50 (nM) Akt3 WM115
T3 construct: SureFire assays to detect cellular p-Akt1, p-Akt2 and p-Akt3 levels in WM115 cells (Akt2/3) and LNCaP cells (Akt1); endogenous in cells; host or cells: WM115 (ECACC 91061232), insulin-stimulated
T3 sequence (Q9Y243 whole entry): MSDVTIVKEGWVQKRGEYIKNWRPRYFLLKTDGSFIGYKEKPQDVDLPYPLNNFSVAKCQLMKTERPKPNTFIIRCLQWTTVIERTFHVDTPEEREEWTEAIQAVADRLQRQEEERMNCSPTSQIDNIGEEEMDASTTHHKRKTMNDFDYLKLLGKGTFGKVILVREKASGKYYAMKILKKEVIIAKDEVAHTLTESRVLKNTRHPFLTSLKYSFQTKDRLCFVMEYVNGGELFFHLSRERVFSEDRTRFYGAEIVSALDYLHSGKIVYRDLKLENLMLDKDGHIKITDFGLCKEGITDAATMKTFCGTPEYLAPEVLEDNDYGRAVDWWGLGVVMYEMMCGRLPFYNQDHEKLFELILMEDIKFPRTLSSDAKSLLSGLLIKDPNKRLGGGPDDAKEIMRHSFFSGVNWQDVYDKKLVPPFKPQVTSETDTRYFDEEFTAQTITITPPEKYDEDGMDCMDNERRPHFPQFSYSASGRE
How it was run: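 WM115 cells were serum-reduced to 0.1% FBS, stimulated with 100 nM insulin for 10 min, then exposed to compound (0.3% DMSO) for 15 min at 37 °C. Lysates were assayed for Thr308-phosphorylated Akt3 by AlphaScreen SureFire using an isoform-specific total Akt3 capture antibody. IC50 was derived from a 4-parameter fit.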

Akt2 = target: T4, Akt2 (Homo sapiens, UniProt P31751); experiment: Akt activation assay (PDK1-mediated activation, LANCE Ultra crosstide TR-FRET), Akt2; type: biochemical; conditions: read-out: Biological Assay 1 IC50 (nM) Akt2
T4 construct: unspecified tag, removed (detagged) (cleaved yes); purchased SignalChem and Proteros (Akt2); Merck Millipore (PDK1) 14-452 (PDK1); none given for Akt2
T4 sequence (P31751 whole entry): as the sequence (P31751 whole entry) above
How it was run: as §1

Akt3 = target: T5, Akt3 (Homo sapiens, UniProt Q9Y243); experiment: Akt activation assay (PDK1-mediated activation, LANCE Ultra crosstide TR-FRET), Akt3; type: biochemical; conditions: read-out: Biological Assay 1 IC50 (nM) Akt3
T5 construct: unspecified tag, removed (detagged) (cleaved yes); purchased SignalChem and Proteros (Akt3); Merck Millipore (PDK1) 14-452 (PDK1); none given for Akt3
T5 sequence (Q9Y243 whole entry): as the sequence (Q9Y243 whole entry) above
How it was run: as §1

p-Akt1 in LNCaP cells = target: T6, p-Akt1 in LNCaP cells (Homo sapiens, UniProt P31749); experiment: Phospho-Akt cellular SureFire assay, p-Akt1 in LNCaP cells; type: cell-based; conditions: read-out: Biological Assay 2 IC50 (nM) Akt1 LNCaP
T6 construct: SureFire assays to detect cellular p-Akt1, p-Akt2 and p-Akt3 levels in WM115 cells (Akt2/3) and LNCaP cells (Akt1); endogenous in cells; host or cells: LNCaP (ECACC 89110211)
T6 sequence (P31749 whole entry): as the sequence (P31749 whole entry) above
Excerpt: Biological Assay 2: Phospho-Akt (p-Akt) Cellular SureFire Assays
The following describes SureFire assays to detect cellular p-Akt1, p-Akt2 and p-Akt3 levels in WM115 cells (Akt2/3) and LNCaP cells (Akt1). In the case of Akt2 and Akt3, Streptavidin-coated donor beads capture a biotinylated anti-mouse antibody that in turn recognises a mouse total Akt antibody which is specific to each isoform. The protein A-conjugated acceptor beads capture an antibody that recognises the phosphoprotein. Similarly in the Akt1 kit, the donor and acceptor beads are used to capture each antibody pair consisting of an antibody that specifically recognises Akt1 as well as an antibody that recognises the phosphoprotein. In each case, close proximity of the beads allows energy transfer from donor to acceptor.
AlphaScreen® SureFire™ Phospho-Akt1 (pThr308) Kit from Perkin Elmer (TGRA2S10K)
LNCaP cells (ECACC, 89110211) cultured in RPMI-1640 culture media (Fisher, 10665193) supplemented with 2 mM L-glutamine, 1% sodium pyruvate and 10% FBS
Cell treatment: 1×10^5 WM115 cells or 5×10^4 LNCaP cells were seeded into each well of a 96 well poly-D-Lysine coated tissue culture plate and incubated overnight at 37° C.+5% CO2. Media was removed from cells and replaced with assay buffer consisting of the full culture media described above but with 0.1% FBS instead of 10% FBS. Only WM115 cells were stimulated at 37° C.+5% CO2 for 10 min with 5 μL insulin at a final concentration of 100 nM. Cells were incubated with 5 μL of test compound at a final DMSO concentration of 0.3% for 15 min at 37° C.+5% CO2. Cell lysis was carried out according to kit instructions.
Assay format (performed in subdued lighting): 4 μL cell lysate and 5 μL reaction buffer were incubated together in the dark at room temperature for 2 h. Reaction buffer was supplemented with a 1/5 dilution of activation buffer, a 1/50 dilution of acceptor beads and in the case of the custom kits, antibodies were added at dilutions of 1/20,000 for Akt2 and 1/2,000 for Akt3.
2 μL dilution buffer, supplemented with a 1/20 dilution of donor beads was added to each well and incubated for a further 2 h. Plates were read with the EnVision® Multilabel Plate Reader and using the AlphaScreen settings. Compound IC50 was determined using a 4-parameter equation.

SMILES | IC50 (Akt1) [nM] | IC50 (p-Akt2 in WM115 cells) [nM] | IC50 (p-Akt3 in WM115 cells) [nM] | IC50 (Akt2) [nM] | IC50 (Akt3) [nM] | IC50 (p-Akt1 in LNCaP cells) [nM]
CC(=O)N(C)[C@H]1CC[C@H](CC(=O)Nc2cnc(-c3ccc([C@]4(N)C[C@](C)(O)C4)cc3)c(-c3ccccc3)c2)CC1 [Example 1, N-(6-(4-(trans-1-amino-3-hydroxy-3-methylcyclobutyl)phenyl)-5-phenylpyridin-3-yl)-2-(trans-4-(N-methylacetamido)cyclohexyl)acetamide] | 780 | 1800 | 30 | 110 | 15 | 2700
NC1(c2ccc(-c3ncc(NC(=O)[C@@H](F)C4CCN(S(=O)(=O)C5CC5)CC4)cc3-c3ccccc3)cc2)CCC1 [Example 50, (S)—N-(6-(4-(1-aminocyclobutyl)phenyl)-5-phenylpyridin-3-yl)-2-(1-(cyclopropylsulfonyl)piperidin-4-yl)-2-fluoroacetamide] | 5800 | 6800 | 580 | 670 | 370 | > 30000
N[C@]1(c2ccc(-c3ncc(NC(=O)C[C@H]4CC[C@H](N5CCOC5=O)CC4)cc3-c3ccccc3)cc2)C[C@@H](F)C1 [Example 78, N-(6-(4-(trans-1-amino-3-fluorocyclobutyl)phenyl)-5-phenylpyridin-3-yl)-2-(trans-4-(2-oxooxazolidin-3-yl)cyclohexyl)acetamide] | 5900 | 810 | 30 | 230 | 14 | 2000
COC(=O)N(C(C)C)[C@H]1CC[C@H](CC(=O)Nc2cnc(-c3ccc([C@]4(N)C[C@](C)(O)C4)cc3)c(-c3ccccc3)c2)CC1 [Example 121, Methyl (trans-4-(2-((6-(4-(trans-1-amino-3-hydroxy-3-methylcyclobutyl)phenyl)-5-phenylpyridin-3-yl)amino)-2-oxoethyl)cyclohexyl) (isopropyl)carbamate] | – | 390 | 11 | 160 | 7 | 1800
NC1(c2ccc(-c3ncc(NC(=O)C[C@H]4CC[C@H](N5CCCC5=O)CC4)cc3-c3ccsc3)cc2)CCC1 [Example 48, N-(6-(4-(1-aminocyclobutyl)phenyl)-5-(thiophen-3-yl)pyridin-3-yl)-2-(trans-4-(2-oxopyrrolidin-1-yl)cyclohexyl)acetamide] | – | 2700 | 110 | 910 | 240 | > 27000

Further lines, results first:

IC50 (Akt1) [nM] | IC50 (p-Akt2 in WM115 cells) [nM] | IC50 (p-Akt3 in WM115 cells) [nM] | IC50 (Akt2) [nM] | IC50 (Akt3) [nM] | IC50 (p-Akt1 in LNCaP cells) [nM] | SMILES
> 30000 | 8700 | 340 | 3500 | 61 | > 30000 | CC(C)(C)CC(=O)N[C@H]1CC[C@H](CC(=O)Nc2cnc(-c3ccc(C(C)(C)N)cc3)c(-c3ccccc3)c2)CC1 [Example A37, N-(trans-4-(2-((6-(4-(2-aminopropan-2-yl)phenyl)-5-phenylpyridin-3-yl)amino)-2-oxoethyl)cyclohexyl)-3,3-dimethylbutanamide]
5500 | 6000 | 560 | 2600 | 1400 | 7700 | NC1(c2ccc(-c3ncc(NC(=O)C[C@H]4CC[C@H](N5CCOCC5)CC4)cc3-c3ccccc3)cc2)CC(F)(F)C1 [Example A2, N-(6-(4-(1-amino-3,3-difluorocyclobutyl)phenyl)-5-phenylpyridin-3-yl)-2-(trans-4-morpholinocyclohexyl)acetamide]
> 30000 | 4400 | 200 | 3600 | 120 | > 30000 | CC(C)(N)c1ccc(-c2cnc(NC(=O)C[C@H]3CC[C@H](N4CCCC4=O)CC3)cc2-c2ccccc2)cc1 [Example A49, N-(5-(4-(2-aminopropan-2-yl)phenyl)-4-phenylpyridin-2-yl)-2-(trans-4-(2-oxopyrrolidin-1-yl)cyclohexyl)acetamide]
> 30000 | 12000 | 480 | – | 2600 | > 30000 | COC(=O)N(C)[C@H]1CC[C@H](C(C)C(=O)Nc2cnc(-c3ccc(C(C)(C)N)cc3)c(-c3ccccc3)c2)CC1 (stereo partly drawn) [Example A45, Methyl (trans-4-(1-((6-(4-(2-aminopropan-2-yl)phenyl)-5-phenylpyridin-3-yl)amino)-1-oxopropan-2-yl)cyclohexyl)(methyl)carbamate]
– | 3500 | 220 | 290 | 24 | 8800 | CN(C(=O)C1CC1)[C@H]1CC[C@H](CC(=O)Nc2cc(-c3ccccc3)c(-c3ccc(C4(N)CCC4)cc3)cn2)CC1 [Example A72, N-(trans-4-(2-((5-(4-(1-aminocyclobutyl)phenyl)-4-phenylpyridin-2-yl)amino)-2-oxoethyl)cyclohexyl)-N-methylcyclopropanecarboxamide]
– | 3000 | 160 | 210 | 22 | 11000 | CC(C)OC(=O)N(C)[C@H]1CC[C@H](CC(=O)Nc2cc(-c3ccccc3)c(-c3ccc([C@]4(N)C[C@](C)(O)C4)cc3)cn2)CC1 [Example A74, Isopropyl (trans-4-(2-((5-(4-(trans-1-amino-3-hydroxy-3-methylcyclobutyl)phenyl)-4-phenylpyridin-2-yl)amino)-2-oxoethyl)cyclohexyl)(methyl)carbamate]
– | 2500 | 140 | 380 | 98 | > 16000 | CCCC(=O)N(C)[C@H]1CC[C@H](CC(=O)Nc2cnc(-c3ccc(C4(N)CC4)cc3)c(-c3ccccc3)c2)CC1 [Example A33, N-(trans-4-(2-((6-(4-(1-aminocyclopropyl)phenyl)-5-phenylpyridin-3-yl)amino)-2-oxoethyl)cyclohexyl)-N-methylbutyramide]
– | 1200 | 59 | 190 | 13 | 4300 | CN(C(=O)C1CCC1)[C@H]1CC[C@H](CC(=O)Nc2cc(-c3ccccc3)c(-c3ccc([C@]4(N)C[C@](C)(O)C4)cc3)cn2)CC1 [Example A76, N-(trans-4-(2-((5-(4-(trans-1-amino-3-hydroxy-3-methylcyclobutyl)phenyl)-4-phenylpyridin-2-yl)amino)-2-oxoethyl)cyclohexyl)-N-methylcyclobutanecarboxamide]
